Drawing on US11236046B2, “Substituted heterocyclic sulfonamide compounds useful as TRPA1 modulators” (Genentech, Inc., priority 2013, dated 2022), this text covers IC50 for 26 compounds.

For orientation: IC50 means the midpoint of a concentration-inhibition curve.

human TRPA1, sequence (O75762 whole entry): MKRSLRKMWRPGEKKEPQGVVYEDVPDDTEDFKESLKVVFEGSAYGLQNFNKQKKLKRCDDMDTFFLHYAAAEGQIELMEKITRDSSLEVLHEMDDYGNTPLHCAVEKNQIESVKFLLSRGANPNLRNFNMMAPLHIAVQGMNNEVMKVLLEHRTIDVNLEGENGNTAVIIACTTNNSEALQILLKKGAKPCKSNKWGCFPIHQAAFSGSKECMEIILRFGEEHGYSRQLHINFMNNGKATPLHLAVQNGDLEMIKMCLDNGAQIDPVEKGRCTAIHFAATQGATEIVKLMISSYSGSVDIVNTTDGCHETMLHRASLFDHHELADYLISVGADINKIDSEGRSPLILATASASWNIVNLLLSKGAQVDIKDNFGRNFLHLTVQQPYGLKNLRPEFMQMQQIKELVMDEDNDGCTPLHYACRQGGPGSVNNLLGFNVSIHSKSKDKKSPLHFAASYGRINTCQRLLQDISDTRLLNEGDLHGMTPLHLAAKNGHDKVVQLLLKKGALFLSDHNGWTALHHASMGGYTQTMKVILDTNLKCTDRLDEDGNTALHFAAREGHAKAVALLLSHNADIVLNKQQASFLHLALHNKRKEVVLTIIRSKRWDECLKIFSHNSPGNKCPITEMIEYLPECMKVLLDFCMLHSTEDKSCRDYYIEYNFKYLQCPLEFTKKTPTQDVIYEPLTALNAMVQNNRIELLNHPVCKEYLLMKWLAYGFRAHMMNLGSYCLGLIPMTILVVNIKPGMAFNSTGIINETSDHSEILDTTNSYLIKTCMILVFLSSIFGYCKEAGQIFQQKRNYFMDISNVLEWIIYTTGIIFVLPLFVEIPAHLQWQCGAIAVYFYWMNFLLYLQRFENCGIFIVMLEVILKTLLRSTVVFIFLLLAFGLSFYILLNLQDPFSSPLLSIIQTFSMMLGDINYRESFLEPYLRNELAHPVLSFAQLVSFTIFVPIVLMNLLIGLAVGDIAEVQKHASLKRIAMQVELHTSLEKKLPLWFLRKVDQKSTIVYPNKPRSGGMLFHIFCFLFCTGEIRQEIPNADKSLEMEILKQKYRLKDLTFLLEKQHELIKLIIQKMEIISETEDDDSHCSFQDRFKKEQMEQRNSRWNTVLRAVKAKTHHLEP

The experiment addresses human TRPA1 (Homo sapiens (Human), UniProt O75762). The experiment in a line: FLIPR Tetra calcium influx assay, block of cinnamaldehyde-induced calcium influx in CHO cells expressing TRPA1 (human). The class given is cell-based. To be noted: 20 min compound incubation, 75 uM cinnamaldehyde (~EC80), Hill coefficient fixed to 1.5, read-out: hTRPA1 AUC IC50. A digest of the protocol:
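CHO cells loaded with calcium dye, preincubated with compounds 20 min at room temperature in HBSS/20 mM HEPES pH 7.4 with 0.02% BSA. Channels activated by ~EC80 cinnamaldehyde (75 uM human, 45 uM rat); block of calcium influx read on FLIPR Tetra, IC50 fitted with fixed Hill coefficient.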
In the case of `O=C(NCc1cc(-c2ccc(C(F)(F)F)nc2)ncn1)[C@@H]1[C@@H](F)CCN1S(=O)(=O)c1ccc(F)cc1` [Example 136, (2R,3S)-3-fluoro-1-(4-fluorophenylsulfonyl)-N-((6-(6-(trifluoromethyl)pyridin-3-yl)pyrimidin-4-yl)methyl)pyrrolidine-2-carboxamide], the IC50 turned out to be 21 nM. With `O=C(NCc1cn(-c2ccc(C(F)(F)F)cc2)nc1Cl)[C@@H]1C[C@@H](F)CN1S(=O)(=O)c1ccc(F)cc1` [Example 137, (2S,4R)—N-([3-chloro-1-[4-(trifluoromethyl)phenyl]-1H-pyrazol-4-yl]methyl)-4-fluoro-1-[(4-fluorobenzene)sulfonyl]pyrrolidine-2-carboxamide] the figure was 78 nM. The same measure for `O=C(NCc1cc(F)cc(-c2ccc(C(F)(F)F)nc2)c1)[C@@H]1C[C@@H](F)CN1S(=O)(=O)c1ccc(F)cc1` [Example 139, (2S,4R)-4-fluoro-1-(4-fluorophenyl)sulfonyl-N-[[3-fluoro-5-[6-(trifluoromethyl)-3-pyridyl]phenyl]methyl]pyrrolidine-2-carboxamide]: 16 nM. As for `O=C(NCc1cc(-c2ccc(C(F)(F)F)nc2)c(F)cn1)[C@@H]1C[C@@H](F)CN1S(=O)(=O)c1ccc(F)cc1` [Example 140, (2S,4R)-4-fluoro-N-((5′-fluoro-6-(trifluoromethyl)-3,4′-bipyridin-2′-yl)methyl)-1-(4-fluorophenylsulfonyl)pyrrolidine-2-carboxamide], the IC50 was 20 nM. With `O=C(NCc1cc(-c2ccc(C(F)(F)F)nc2)ncc1F)[C@@H]1C[C@@H](F)CN1S(=O)(=O)c1ccc(F)cc1` [Example 141, (2S,4R)-4-fluoro-N-((5-fluoro-6′-(trifluoromethyl)-2,3′-bipyridin-4-yl)methyl)-1-(4-fluorophenylsulfonyl)pyrrolidine-2-carboxamide] the figure was 68 nM; with `O=C(NCc1cc(-c2ccc(C(F)(F)F)cc2)ncn1)[C@@H]1C[C@@H](F)CN1S(=O)(=O)c1ccc(F)cc1` [Example 143, (2S,4R)-4-fluoro-1-(4-fluorophenylsulfonyl)-N-((6-(4-(trifluoromethyl)phenyl)pyrimidin-4-yl)methyl)pyrrolidine-2-carboxamide], 15 nM. With `O=C(NCc1cc(N2CCC(C(F)(F)F)CC2)c(F)cn1)[C@@H]1C[C@@H](F)CN1S(=O)(=O)c1ccc(F)cc1` [Example 144, (2S,4R)-4-fluoro-N-((5-fluoro-4-(4-(trifluoromethyl)piperidin-1-yl)pyridin-2-yl)methyl)-1-(4-fluorophenylsulfonyl)pyrrolidine-2-carboxamide] the figure was 56 nM. Turning to `O=C(NCc1cc(-c2ccc(OC(F)(F)F)cc2)ncn1)[C@@H]1C[C@@H](F)CN1S(=O)(=O)c1ccc(F)cc1` [Example 145, (2S,4R)-4-fluoro-1-(4-fluorophenylsulfonyl)-N-((6-(4-(trifluoromethoxy)phenyl)pyrimidin-4-yl)methyl)pyrrolidine-2-carboxamide], the IC50 came out at 21 nM. For `O=C(NCc1cn(-c2ccc(C(F)(F)F)nc2)nc1Cl)[C@@H]1C[C@@H](F)CN1S(=O)(=O)c1ccc(F)cc1` [Example 146, (2S,4R)—N-([3-chloro-1-[6-(trifluoromethyl)pyridin-3-yl]-1H-pyrazol-4-yl]methyl)-4-fluoro-1-[(4-fluorobenzene)sulfonyl]pyrrolidine-2-carboxamide], the IC50 is 78 nM. The same measure for `O=C(NCc1cc(-c2ccc(SC(F)(F)F)cc2)ncn1)[C@@H]1C[C@@H](F)CN1S(=O)(=O)c1ccc(F)cc1` [Example 147, (2S,4R)-4-fluoro-1-(4-fluorophenylsulfonyl)-N-((6-(4-(trifluoromethylthio)phenyl)pyrimidin-4-yl)methyl)pyrrolidine-2-carboxamide]: 49 nM; for `O=C(NCc1cc(C2=CCC(C(F)(F)F)CC2)ncn1)[C@@H]1C[C@@H](F)CN1S(=O)(=O)c1ccc(F)cc1` (stereo partly drawn) [Example 148, (2S,4R)-4-fluoro-1-(4-fluorophenylsulfonyl)-N-((6-(4-(trifluoromethyl)cyclohex-1-enyl)pyrimidin-4-yl)methyl)pyrrolidine-2-carboxamide]: 46 nM. In the case of `O=C(NCc1cc(-c2ccc(C(F)(F)F)cc2)ncn1)[C@@H]1C[C@@H](F)CN1S(=O)(=O)c1ccc(F)c(F)c1` [Example 150, (2S,4R)-1-(3,4-difluorophenylsulfonyl)-4-fluoro-N-((6-(4-(trifluoromethyl)phenyl)pyrimidin-4-yl)methyl)pyrrolidine-2-carboxamide], the IC50 was found to be 46 nM. For the compound `O=C(NCc1cn(-c2ccc(C(F)(F)F)nc2)nc1C1CC1)[C@@H]1C[C@@H](F)CN1S(=O)(=O)c1ccc(F)cc1` [Example 151, (2S,4R)—N-([3-cyclopropyl-1-[6-(trifluoromethyl)pyridin-3-yl]-1H-pyrazol-4-yl]methyl)-4-fluoro-1-[(4-fluorobenzene)sulfonyl]pyrrolidine-2-carboxamide], the IC50 was 161 nM. The same measure for `Cc1nc(CNC(=O)[C@@H]2C[C@@H](F)CN2S(=O)(=O)c2ccc(F)cc2)cc(-c2ccc(C(F)(F)F)nc2)n1` [Example 152, (2S,4R)-4-fluoro-1-(4-fluorophenylsulfonyl)-N-((2-methyl-6-(6-(trifluoromethyl)pyridin-3-yl)pyrimidin-4-yl)methyl)pyrrolidine-2-carboxamide]: 163 nM; for `COc1nn(-c2ccc(C(F)(F)F)nc2)cc1CNC(=O)[C@@H]1C[C@@H](F)CN1S(=O)(=O)c1ccc(F)cc1` [Example 153, (2S,4R)-4-fluoro-1-[(4-fluorobenzene)sulfonyl]-N-([3-methoxy-1-[6-(trifluoromethyl)pyridin-3-yl]-1H-pyrazol-4-yl]methyl)pyrrolidine-2-carboxamide]: 68 nM. With `O=C(NCc1cc(-c2ccc(C(F)(F)F)nc2)ncn1)[C@@H]1C[C@@H](F)CN1S(=O)(=O)c1ccc(F)cc1` [Example 154, (2S,4R)-4-fluoro-1-(4-fluorophenylsulfonyl)-N-((6-(6-(trifluoromethyl)pyridin-3-yl)pyrimidin-4-yl)methyl)pyrrolidine-2-carboxamide] the figure was 97 nM.

Regarding `O=C(NCc1cc(-c2ccc(C3CC3)cc2)ncn1)[C@@H]1C[C@@H](F)CN1S(=O)(=O)c1ccc(F)cc1` [Example 155, (2S,4R)—N-((6-(4-cyclopropylphenyl)pyrimidin-4-yl)methyl)-4-fluoro-1-(4-fluorophenylsulfonyl)pyrrolidine-2-carboxamide], the IC50 stood at 134 nM.

With `O=C(NCc1cc(-c2ccc(C(F)(F)F)nc2)ncn1)[C@@H]1C[C@@H](F)CN1S(=O)(=O)c1ccc(F)c(F)c1` [Example 156, (2S,4R)-1-(3,4-difluorophenylsulfonyl)-4-fluoro-N-((6-(6-(trifluoromethyl)pyridin-3-yl)pyrimidin-4-yl)methyl)pyrrolidine-2-carboxamide], the half-maximal inhibitory concentration (IC50) was determined as 109 nM. The same measure for `O=C(NCc1cc(-c2cnc(C(F)(F)F)nc2)ccn1)[C@@H]1[C@@H](F)CCN1S(=O)(=O)c1ccc(F)cc1` [Example 157, (2R,3S)-3-fluoro-1-(4-fluorophenyl)sulfonyl-N-[[4-[2-(trifluoromethyl)pyrimidin-5-yl]-2-pyridyl]methyl]pyrrolidine-2-carboxamide]: 103 nM; for `O=C(NCc1cc(-c2cnc(C(F)(F)F)nc2)ccc1Cl)[C@@H]1C[C@@H](F)CN1S(=O)(=O)c1ccc(F)cc1` [Example 158, (2S,4R)—N-[[2-chloro-5-[2-(trifluoromethyl)pyrimidin-5-yl]phenyl]methyl]-4-fluoro-1-(4-fluorophenyl)sulfonyl-pyrrolidine-2-carboxamide]: 4 nM.

Turning to `O=C(NCc1ccnc(-c2ccc(OC(F)(F)F)cc2)c1)[C@@H]1C[C@@H](F)CN1S(=O)(=O)c1ccc(F)cc1` [Example 159, (2S,4R)-4-fluoro-1-(4-fluorophenyl)sulfonyl-N-[[2-[4-(trifluoromethoxy)phenyl]-4-pyridyl]methyl]pyrrolidine-2-carboxamide], the 50% inhibitory concentration (IC50) is 18 nM. The same measure for `O=C(NCc1ccnc(-c2ccc(OC(F)F)cc2)c1)[C@@H]1C[C@@H](F)CN1S(=O)(=O)c1ccc(F)cc1` [Example 160, (2S,4R)—N-[[2-[4-(difluoromethoxy)phenyl]-4-pyridyl]methyl]-4-fluoro-1-(4-fluorophenyl)sulfonyl-pyrrolidine-2-carboxamide]: 86 nM; for `O=C(NCc1cc(-c2ccc(C(F)(F)F)nc2)ccc1F)[C@@H]1C[C@@H](F)CN1S(=O)(=O)c1ccc(F)cc1` [Example 161, (2S,4R)-4-fluoro-N-(2-fluoro-5-(6-(trifluoromethyl)pyridin-3-yl)benzyl)-1-((4-fluorophenyl)sulfonyl)pyrrolidine-2-carboxamide]: 9 nM; for `O=C(NCc1cc(-c2ccc(C(F)(F)F)cn2)ccc1F)[C@@H]1C[C@@H](F)CN1S(=O)(=O)c1ccc(F)cc1` [Example 162, (2S,4R)-4-fluoro-N-(2-fluoro-5-(5-(trifluoromethyl)pyridin-2-yl)benzyl)-1-((4-fluorophenyl)sulfonyl)pyrrolidine-2-carboxamide]: 11 nM. For the compound `O=C(NCc1cc(-c2ccc(C(F)(F)F)nn2)ccc1F)[C@@H]1C[C@@H](F)CN1S(=O)(=O)c1ccc(F)cc1` [Example 163, (2S,4R)-4-fluoro-N-(2-fluoro-5-(6-(trifluoromethyl)pyridazin-3-yl)benzyl)-1-((4-fluorophenyl)sulfonyl)pyrrolidine-2-carboxamide], the 50% inhibitory concentration (IC50) was 43 nM.

`N#Cc1ccc(-c2cnc(C(F)(F)F)nc2)cc1CNC(=O)[C@@H]1C[C@@H](F)CN1S(=O)(=O)c1ccc(F)cc1` [Example 164, (2S,4R)—N-(2-cyano-5-(2-(trifluoromethyl)pyrimidin-5-yl)benzyl)-4-fluoro-1-((4-fluorophenyl)sulfonyl)pyrrolidine-2-carboxamide]: the IC50 amounted to 32 nM.
